Like-named read-outs stand apart in the source and are kept apart here.
Columns and labels:
intracellular ROS = experiment: Intracellular ROS assay (DCF-DA, flow cytometry), M109 cells; assay type: cell-based, mouse; details: 50 μM, 10 min, positive control
Experimental: Intracellular ROS generation was assessed using the cell-permeable dye 2′,7′-dichlorofluorescein-diacetate (DCF-DA) (Sigma). DCF-DA readily diffuses into cells and becomes highly fluorescent when oxidised by O2^•−, H2O2, or OH^−.^29 Cellular fluorescence intensity is directly proportional to the level of intracellular ROS.^29 M109 cells (1×10^5 cells/well) were incubated with or without 1 μM Dp44mT for 0-48 h or 50 μM H2O2 (positive control) for 10 min at 37° C. The cells were then incubated with DCF-DA (5 μM) for 20 min at 37° C., washed twice, and detached from the culture plates. The fluorescence of oxidised DCF in cells was measured using flow cytometry.^29)
To test whether induction of h-cytc release from the mitochondrion (FIG. 15A) and the imbalance of Bcl-2/Bax expression (FIG. 15B) was due to the presence of ROS, intracellular ROS were measured by flow cytometry using the DCFH-DA probe which becomes fluorescent when oxidised by O2^•−, H2O2, or OH^−.^29 Incubation of M109 cells with Dp44mT (1 μM) increased the levels of oxidised probe as a function of time. After 2 h, a 25±10% increase in oxidised DCFH-DA fluorescence was found compared to the 0 h time point, and this increased to 486±96% after 48 h (FIG. 15C). For comparison, a 10 min incubation with the positive control, H2O2 (50 μM), increased fluorescence to 1312±46% of the 0 h time point (FIG. 15C)

M109 carcinoma cells = experiment: 59Fe uptake from 59Fe-Tf by M109 cells; assay type: cell-based, mouse; details: 1 μM
Experimental: The ability of the compound Dp44mT to inhibit the growth of M109 lung carcinoma cells in mice was assessed. Studies were performed using M109 carcinoma cells in culture to determine the effect of Dp44mT on mobilising ^59Fe from these cells (FIG. 11C) and inhibiting ^59Fe uptake from ^59Fe-Tf (FIG. 11D). As internal controls, cells were incubated with DFO and 311. The effect of compound concentration on increasing ^59Fe mobilisation from M109 cells was examined by labelling cells with ^59Fe-Tf (0.75 μM) for 3 h at 37° C. followed by washing and reincubation with the respective compounds (0.2-25 μM) for 3 h at 37° C. (FIG. 11C). […] In contrast, 311 increased cellular ^59Fe release from 8±1% (control medium) to […] at 5 μM (FIG. 11C). For Dp44mT ^59Fe release plateaued at 2 μM, resulting in the efflux of 48±2% of ^59Fe (FIG. 11C).
At 1 μM, 311 reduced ^59Fe uptake to 40±4% of the control. […] Dp44mT had similar activity to 311 up to a concentration of 5 μM, where it reduced ^59Fe uptake to 30±1% of the control (FIG. 11D).

[1] = tested on: SK-N-MC neuroepithelioma cells; experiment: MTT cellular proliferation assay, SK-N-MC; assay type: cell-based, human
Experimental: […] […] After this incubation, 0.01 mL of MTT was added to each well and the plates incubated for 2 h at 37° C. The cells were then solubilised by adding 0.1 mL of 10% SDS-50% isobutanol in 0.01 M HCl and the plates then read at 570 nm on a scanning multiwell spectrophotometer (Titertek Multiscan; Beckman Instruments Inc, California). MTT colour formation was directly proportional to the number of viable cells.
The effect of the compounds on the proliferation of SK-N-MC neuroepithelioma cells was examined using the MTT assay (described above).
(§1) Dp2mT served as a negative control.

MRC-5 fibroblasts = experiment: MTT cellular proliferation assay, MRC-5 fibroblasts; assay type: cell-based, human
Experimental: (§2) The final concentration of the compounds was 0.39-50 μM. […] […] After this incubation, 0.01 mL of MTT was added to each well and the plates incubated for 2 h at 37° C. The cells were then solubilised by adding 0.1 mL of 10% SDS-50% isobutanol in 0.01 M HCl and the plates then read at 570 nm on a scanning multiwell spectrophotometer (Titertek Multiscan; Beckman Instruments Inc, California). MTT colour formation was directly proportional to the number of viable cells.
The MRC-5 cell type is a normal human lung fibroblast cell strain that is mortal and senesces after a number of passages in vitro. The SK-N-MC neuroepithelioma cell type is immortal.
as §1

SK-Mel-28 melanoma cells = experiment: MTT cellular proliferation assay, SK-Mel-28; assay type: cell-based, human; details: Table 3, 72 h, mean ± SD
Experimental: as §2, §1
(§3) Dp2mT served as a negative control as the methyl group at the 2-position hinders Fe-chelation.

[2] = tested on: MCF-7 breast cancer cells; experiment: MTT cellular proliferation assay, MCF-7; assay type: cell-based, human; details: values given in Example 8; read-out: IC50, anti-proliferative activity in MCF-7 cells
Experimental: […] […] […] After this incubation, 0.01 mL of MTT was added to each well and the plates incubated for 2 h at 37° C. The cells were then solubilised by adding 0.1 mL of 10% SDS-50% isobutanol in 0.01 M HCl and the plates then read at 570 nm on a scanning multiwell spectrophotometer (Titertek Multiscan; Beckman Instruments Inc, California). MTT colour formation was directly proportional to the number of viable cells.
as §1, §3

H69AR lung cancer = experiment: MTT cellular proliferation assay, H69AR; assay type: cell-based; details: 0-50 μM, 72 h, 1 experiment
Experimental: as §2
(§4) At the end of the incubation period, cell density was determined by the MTT assay (described above).

IMR-32 Neuroblastoma = experiment: MTT cellular proliferation assay, IMR-32; assay type: cell-based; details: 0-50 μM, 72 h, 1 experiment
Experimental: as §2, §4

HEP G2 Hepatoma = experiment: MTT cellular proliferation assay, HEP G2; assay type: cell-based; details: 0-50 μM, 72 h, 1 experiment
Experimental: as §2, §4

DU 145 prostate cancer = experiment: MTT cellular proliferation assay, DU 145; assay type: cell-based; details: 0-50 μM, 72 h, 2 experiments
Experimental: as §2, §4

NCI H2452 mesothelioma = experiment: MTT cellular proliferation assay, NCI H2452; assay type: cell-based; details: 0-50 μM, 72 h, 3 experiments
Experimental: as §2, §4

[3] = tested on: SK-N-MC neuroepithelioma cells; experiment: 3H-thymidine incorporation by SK-N-MC cells; assay type: cell-based, human; details: 20 h incubation then 2 h label; Mean ± SD, 4 experiments
Experimental: (§5) After a 20 h incubation of the SK-N-MC cells with a selection of analogues, ^3H-thymidine, ^3H-leucine, or ^3H-uridine (1 μCi/ml) was added for 2 h at 37° C. The cells were detached from the 96 well plate using 1 mM EDTA in Ca(II)/Mg(II)-free PBS and collected and washed using a cell harvester (Tomtec Harvester 96, Linbrook, Queensland, Australia). Radioactivity was measured on a P-scintillation counter (LKB Wallace, Turku, Finland).

[4] = tested on: SK-N-MC neuroepithelioma cells; experiment: 3H-leucine incorporation by SK-N-MC cells; assay type: cell-based, human; details: 20 h incubation then 2 h label; Mean ± SD, 4 experiments
Experimental: as §5

[5] = tested on: SK-N-MC neuroepithelioma cells; experiment: 3H-uridine incorporation by SK-N-MC cells; assay type: cell-based, human; details: 20 h incubation then 2 h label; Mean ± SD, 3 experiments
Experimental: as §5

GADD45 and WAF1 mRNA = experiment: Northern blot of WAF1 and GADD45 mRNA expression in SK-N-MC cells; assay type: cell-based, human; details: DFO 100 μM, other chelators 25 μM, 20 h at 37° C. (FIG. 7)
Experimental: FIG. 7. […] Northern blotting was performed using standard procedures (see Example 6).
Northern blot analysis was performed by isolating total RNA using the Total RNA Isolation Reagent (Advanced Biotechnologies Ltd, Surrey, United Kingdom). The membranes were hybridised with probes specific for human WAF1, GADD45, and β-actin. The WAF1 probe consisted of a 1 kb fragment from pSXV (ATCC; Cat. No. 79928). The GADD45 probe consisted of a 760 bp fragment from human GADD45 cDNA cloned into pHu145B2 (kindly supplied by Dr. Albert Fornace, National Cancer Institute, NIH, Maryland). The β-actin probe consisted of a 1.4 kb fragment from human β-actin cDNA cloned into pBluescript SK− (ATCC; Cat. No. 37997).

Ndrg1 = Ndrg1 expression in MCF-7 cells (Western blotting); assay type: cell-based, human; details: 25 μM, 24 h, MCF-7 cells (FIG. 16)
Experimental: FIG. 16. […] The expression of Ndrg1 and β-actin protein levels were assessed by Western blotting.
MCF-7 cells were incubated for 24 h with a range of metal ion chelators. […] Dp2mT was used as a negative control, […]

[6] = tested on: iron regulatory proteins (IRPs); experiment: IRP-RNA-binding activity, gel-retardation assay, SK-N-MC cells; assay type: cell-based, human; details: DFO 100 μM, FAC 100 μg/ml, other chelators 25 μM, 20 h (FIG. 8)
[7] = tested on: SK-N-MC neuroepithelioma cells; experiment: 59Fe mobilization from prelabelled SK-N-MC neuroepithelioma cells; assay type: cell-based, human
Experimental: The effect of chelators on ^59Fe release from prelabelled cells was studied using standard procedures.^18 Cells were prelabelled with ^59Fe-transferrin (0.75 μM) for 3 h at 37° C. […] The overlying medium was then removed and placed into γ-counting tubes. The cells were removed from the petri dishes in 1 ml of BSS using a plastic spatula and transferred to a separate set of γ-counting tubes.
The ability of the compounds to mobilise ^59Fe from SK-N-MC neuroepithelioma cells was assessed after a 3 h labelling period with ^59Fe-Tf (0.75 μM) at 37° C. […]
DFO and 311 were used as internal standards.

[8] = tested on: SK-N-MC neuroepithelioma cells; experiment: 59Fe uptake from 59Fe-transferrin by SK-N-MC neuroepithelioma cells; assay type: cell-based, human; details: 0.5-50 μM, 3 h; PCTH internal control (FIG. 5B)
Experimental: The cells were then placed on ice and washed four times with ice-cold Hank's balanced salt solution (BSS) to remove non-specifically bound ^59Fe-Tf. Cells were then incubated with the general protease, pronase (1 mg/ml), for 30 min at 4° C. to remove membrane-bound ^59Fe and Tf.
PCTH was used as an internal control.

[9] = Table 2, MTT assay, 90 h incubation, Mean ± SD, 4 experiments, read-out: IC50 Values of Chelators

| IC50 [1, 9] [nM] | IC50 (H69AR lung cancer) [nM] | IC50 (IMR-32 Neuroblastoma) [nM] | IC50 (DU 145 prostate cancer) [nM] | Compound | IC50 (NCI H2452 mesothelioma) [nM] | 3H-Thymidine Incorporation [3] [% Control] | 3H-Leucine Incorporation [4] [% Control] | 3H-Uridine Incorporation [5] [% Control] | GADD45 and WAF1 mRNA expression (GADD45 and WAF1 mRNA) | IRP-RNA binding activity [6] | also measured |
| --- | --- | --- | --- | --- | --- | --- | --- | --- | --- | --- | --- |
| – | – | – | – | OO [H2O2] | – | – | – | – | – | – | fluorescence (intracellular ROS): 1312±46 % of the 0 h time point |
| 3000 ± 2000 | 970 | 300 | 1940 | O=C(NN=Cc1c(O)ccc2ccccc12)c1ccncc1 [compound 311, 2-hydroxy-1-naphthylaldehyde isonicotinoyl hydrazone] | 470 | 0.1 ± 0.1 | 2 ± 1 | 5 ± 2 | up-regulation | increase | 59Fe uptake (M109 carcinoma cells): 40±4 % of the control; IC50 ([1]; Table 3, 0-25 μM, 72 h, MTT, mean ± SD, read-out: IC50 SK-N-MC neuroepithelioma): 300 nM; IC50 (MRC-5 fibroblasts; Table 3, normal cells, 72 h, MTT, read-out: IC50 MRC-5 fibroblasts): > 25000 nM; IC50 (SK-Mel-28 melanoma cells): 900 ± 500 nM; IC50 [2]: 600 nM; IC50 (HEP G2 Hepatoma): 1180 nM; up-regulation of Ndrg1 (Ndrg1): markedly increased |
| 3000 ± 1000 | 780 | 300 | 1430 | di-2-pyridylketone 2-thiophenecarboxaldehyde hydrazone [PKTH] | 730 | 0.04 ± 0.01 | 19 ± 8 | 5 ± 1 | pronounced effect | – | 59Fe mobilisation as a function of concentration ([7]; 0.5-50 μM, 3 h, PCTH internal control (FIG. 5A)): more effective than PCTH; cellular 59Fe released ([7]; chelator 1 μM, 3 h reincubation at 37° C. (FIG. 5A)): 26%; prevention of 59Fe uptake as a function of concentration [8]: higher efficacy than the control PCTH; IC50 (MRC-5 fibroblasts; Example 4c, FIG. 6, read-out: IC50 values in fibroblasts): 16000 nM |
| – | – | – | – | ferric ammonium citrate [FAC] | – | – | – | – | – | decreased | – |

Source: patent US20060252798A1, “Metal ion chelators and therapeutic use thereof” (priority 2003, published 2006)
